Measurements published in patent US20030139609A1, “Aziridinyl quinone antitumor agents based on indoles and cyclopent[b]indoles” (priority 2001, published 2003).

Tests used:
[1] = system: National Cancer Institute 60-cell line; experiment: NCI 60-cell line in vitro screen (average cytotoxicity and cancer specificity)
Description: Cytotoxic and Cytostatic Screening of Series 1-9. […] The cytostatic parameters include GI50 and TGI, which are the concentrations of drug required for 50% growth inhibition and total growth inhibition, respectively. The cytotoxic parameter is the LC50, which is the concentration required for 50% cell kill.
4. […] Cancer specificity is measured from the ± value under the “Average Log LC50 60-Cell Line” heading of Table 5. A ± value greater than 2 indicates a greater than 100-fold higher/lower cytotoxicity in some histological cancer types compared to the mean cytotoxicity.
The DT-diaphorase levels in the National Cancer Institute 60-cell line in vitro screen have been determined and correlated with the cytotoxicity of antitumor agents activated by 2-electron reduction. {Fitzsimmons, S. A., Workman, P., Grever, M., Paull, K., Camalier, R., and Lewis, A. D., Reductase Enzyme Expression Across the National Cancer Institute Tumor Cell Line Panel: Correlation with Sensitivity To Mitomycin C and EO9, J. Natl. Cancer Inst., 1996, 88, 259-69}. Sensitive cancers usually include NSC lung and colon cancers (and to a lesser extent CNS, melanoma, and renal cancers) by virtue of their elevated DT-diaphorase levels.

[2] = target: human DT-diaphorase (from the non-small cell lung NCI-H460 cell line) (Homo sapiens, UniProt P15559); experiment: DT-diaphorase substrate kinetics (recombinant enzyme, anaerobic, Lineweaver-Burke); type: biochemical
Text: Listed in Tables 1-4 are the human DT-diaphorase kinetic parameters for Series 1-9, along with the DNA alkylation percentages. These parameters include the apparent dissociation constant KM, the apparent maximal velocity VMAX, and the substrate specificity, VMAX/KM. The designation “apparent” refers to the present of productive and nonproductive constants in KM and VMAX. {Fersht, A. R., The Hydrogen Bond in Molecular Recognition Trends, Biochem. Sci., 1987, 12, 301-304} These constants cancel in the ratio VMAX/KM, which is the best parameter to compare substrates. Human DT-diaphorase (from the non-small cell lung NCI-H460 cell line) {Beall, H. D., Mulcahy, R. T., Siegel, D., Traver, R D., Gibson, N. W., and Ross, D., Metabolism of Bioreductive Antitumor Compounds by Purified Rat and Human DT-Diaphorase Cancer Res., 1994, 54, 3196-3201 } was used to obtain these kinetic parameters. This enzyme is the same as that present in other human tissues, cancerous or otherwise.
Kinetics Studies using Recombinant DT-diaphorase. Kinetics studies were carried out in 0.05 M pH 7.4 Tris buffer under anaerobic conditions, employing Thunberg cuvettes. […] To calculate Vmax, the value of □□ must be obtained. □□ was calculated from the initial and final absorbances for complete quinone reduction; all values are between 8000 to 9000 M^−1 cm^−1. […]

600 bp calf thymus DNA = experiment: DNA reductive alkylation by catalytically reduced aziridinyl quinones; type: biochemical
Description: DNA Alkylation Screening of Series 1-9. The extent of DNA reductive alkylation was determined by catalytic reduction of the aziridinyl quinones in the presence of 600 bp calf thymus DNA. Oxidative workup afforded DNA colored blue as a result of the aminoquinone chromophore. […] The anaerobic conditions employed for DNA reductive alkylation assays is not meant to mimic the environment of tumor cells. These conditions do permit an accurate assessment of the structural requirements for DNA alkylation by the hydroquinone species. To be sure, agents incapable of akylating DNA under these ideal conditions will not do so in the typical cellular environment.
Alkylation of DNA by Reduced Indoloquinones. To a mixture of 1-2 mg of sonicated (600 bp) calf thymus DNA in 2.0 mL of 0.05 M of pH 7.4 tris buffer and 2 mg of Pd on carbon was added a five-to-one base pair equivalent amount of the indoloquinone dissolved in 0.5 mL of dimethylsulfoxide. The resulting solution was degassed under argon for 30 min., after which the mixture was purged with H2 for 10 min. The solution was then purged with argon for 10 min. and placed in a 30° C. bath for 24 h. The reaction was opened to the air and the catalyst was removed with a Millex-PF […] syringe filter. The filtrate was adjusted to 0.3 M acetate with a 3 M stock solution of pH 5.1 acetate and then diluted with two volumes of ethanol. The mixture was chilled at −20° C. for 12 h and the DNA pellet collected by centrifuging at 12,000 g for 20 min. The pellet was redissolved in water and then precipitated and centrifuged again. The resulting blue or red pellet was suspended in ethanol, centrifuged, and dried. The dried pellet was weighed and dissolved in 1 mL of double distilled water resulting in a clear colored solution with […]max˜550 nm, □˜750 M^−1 cm^−1. This is the chromophore of the aminoquinone resulting from nucleophile-mediated opening of the aziridine ring. Model 2′-chloroethyl aminoquinones for extinction coefficient determination were prepared by treatment of the indoloquinone with HCl. {Skibo, E. B. and Xing, C., Chemistry and DNA Alkylation Reactions of Aziridinyl Quinones: Development of an Efficient Alkylating Agent of the Phosphate Backbone, Biochemistry, 1998, 37, 15199-15213}.

[3] = system: NCI-H460 non-small-lung cancer cell line; experiment: NCI In Vitro Cell Line Screening, NSC H460 cell line; type: cell-based
Text: Cytotoxic and Cytostatic Screening of Series 1-9.

human DT-diaphorase (from the non-small cell lung NCI-H460 cell line), sequence (P15559 whole entry): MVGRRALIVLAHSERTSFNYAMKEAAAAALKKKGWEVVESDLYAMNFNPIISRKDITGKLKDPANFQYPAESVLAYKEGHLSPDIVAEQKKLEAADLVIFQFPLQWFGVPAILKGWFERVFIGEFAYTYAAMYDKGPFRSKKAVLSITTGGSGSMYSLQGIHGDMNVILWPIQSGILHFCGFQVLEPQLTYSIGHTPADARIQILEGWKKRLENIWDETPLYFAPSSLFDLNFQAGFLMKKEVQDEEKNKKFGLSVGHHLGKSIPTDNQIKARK

## CCOC(=O)c1[nH]c2c(c1COC(C)=O)C(=O)C(N1CC1)=CC2=O [Compound 6d, 3-Acetoxymethyl-5-aziridinyl-2-ethoxycarbonylindole-4,7-dione]
[1]
  ± value of Average Log LC50 60-Cell Line: ~1
[1]; mean over 60 cell lines, ± value measures cancer specificity
  Average Log LC50 60-Cell Line: −5.62 ± 1.05
[2]
  DT-diaphorase specificity: 0.0072 M⁻¹ s⁻¹
600 bp calf thymus DNA
  % of DNA bases reductively activated: 91.2%
  DNA alkylation (in words): high DNA alkylation percentages
600 bp calf thymus DNA; catalytic reduction, anaerobic, pH 7.4 tris buffer, 30° C., 24 h, absorbance at 550 nm
  DNA alkylation percentage: 91.2%
[3]; Homo sapiens, NCI-H460, concentration for 50% growth inhibition, read-out: Log GI50 NSC H460 (converted)
  GI50: 37.2 nM
[3]; Homo sapiens, NCI-H460, read-out: Log LC50 NSC H460, concentration for 50% cell kill (converted)
  CC50: 603 nM
[3]; concentration for total growth inhibition
  Log TGI NSC H460: −6.77
